Data taken from publication PMC12635268, “Novel antimicrobial peptides and peptide-microbiome crosstalk in Appalachian salamander skin” (NPJ Biofilms and Microbiomes, 2025).
Peptide text beside a SMILES is read from it.

Tests used:
K. pneumoniae 4640 = settings: 4640, 20 h
E. faecium ATCC 19434 = test: microbe, parasite or virus in culture; settings: ATCC 19434, 20 h
Procedure: (§1) Antimicrobial susceptibility testing of the 20 synthesized peptides against 17 bacterial strains of clinical relevance in the ESKAPEE panel was conducted using minimum inhibitory concentration (MIC) assays following the broth microdilution method outlined by Parker et al.[91]. The ESKAPEE panel is comprised of fourteen American Type Culture Collection (ATCC) strains and three Multidrug Resistant Organism Repository and Surveillance Network (MRSN) bacterial strains. These strains represent at least one drug-susceptible strain and one drug-resistant strain for each bacterium to assess drug efficacy across various resistance mechanisms. This panel is comprised of the following bacterial species and strains: E. faecium (ATCC 19434, ATCC 49224), S. aureus (ATCC 25923, ATCC 43300), K. pneumoniae (ATCC 700603, ATCC 13883, MRSN 1320), A. baumannii (ATCC 17978, ATCC 19606, MRSN 959), P. aeruginosa (ATCC 15692, ATCC 27853, MRSN 5519), E. cloacae (ATCC 13047, ATCC 35549), and E. coli (ATCC 35218, ATCC 43888). Bacteria were grown in cation-adjusted Mueller-Hinton broth (CAMHB) to achieve a final inoculum of 1 × 10⁵ CFU/mL. CAMHB is selected for its batch-to-batch reproducibility, low levels of antimicrobial inhibitors, and ability to support the growth of most bacterial pathogens.
(§2) Briefly, lyophilized peptides were dissolved in 0.2% TFA + 0.4% BSA in water to 2.56 mg/mL, ultrasonicated for 20 min, diluted 10-fold into CAMHB, and then serially diluted 2-fold in 0.02% TFA + 0.04% BSA in CAMHB and assayed at a concentration of 0.25 to 128 μg/mL. Assays were set up using the Tecan Freedom EVO liquid handling robot and software (Tecan, Switzerland) with 50 μL of bacterial inoculum and 50 μL of peptide transferred into round-bottom 96-well microtiter plates. Each plate assay was performed in duplicate and incubated at 37 °C for 20 h without agitation. Bacterial growth was assessed using the BIOMIC V3 Image Analysis system (Giles Scientific, USA) and the MIC values were determined visually according to the Clinical and Laboratory Standards Institute (CLSI) guidelines.

P. aeruginosa MRSN 5519 = test: microbe, parasite or virus in culture; settings: MRSN 5519, 20 h
Procedure: as §1, §2

E. faecium ATCC 49224 = test: microbe, parasite or virus in culture; settings: ATCC 49224, 20 h
Procedure: as §1, §2

K. pneumoniae ATCC 13883 = test: microbe, parasite or virus in culture; settings: ATCC 13883, 20 h
Procedure: as §1, §2

A. baumannii ATCC 17978 = test: microbe, parasite or virus in culture; settings: ATCC 17978, 20 h
Procedure: as §1, §2

P. aeruginosa ATCC 27853 = test: microbe, parasite or virus in culture; settings: ATCC 27853, 20 h
Procedure: as §1, §2

E. cloacae ATCC 13047 = test: microbe, parasite or virus in culture; settings: ATCC 13047, 20 h
Procedure: as §1, §2

S. aureus ATCC 25923 = test: microbe, parasite or virus in culture; settings: ATCC 25923, 20 h
Procedure: as §1, §2

E. coli ATCC 43888 = test: microbe, parasite or virus in culture; settings: ATCC 43888, 20 h
Procedure: as §1, §2

E. cloacae ATCC 35549 = test: microbe, parasite or virus in culture; settings: ATCC 35549, 20 h
Procedure: as §1, §2

A. baumannii ATCC 19606 = test: microbe, parasite or virus in culture; settings: ATCC 19606, 20 h
Procedure: as §1, §2

P. aeruginosa PA01 (Si) = test: microbe, parasite or virus in culture; type: cell-based; settings: Si
Excerpt: Supplement 41522_2025_837_MOESM13_ESM.xlsx, sheet "Table_S13_ESKAPEE-MIC" | column: Bacterial MIC (µg/mL)

[1] = design: method as in Biomatik (vendor); settings: 1.0 mg peptide in 1.0 ml solvent; peptides synthesized by Biomatik; ref Biomatik (vendor); cited from earlier work
A. baumannii 5075 = settings: Week 1 (12/6/2023)
S. aureus ATCC 43300 = test: microbe, parasite or virus in culture; settings: S. aureus 43300; Week 1 (12/6/2023)
Procedure: as §1, §2

[2] = system: K. pneumoniae ATCC 700603; test: microbe, parasite or virus in culture; settings: K. pneumoniae 700603; Week 1 (12/6/2023)
Procedure: as §1, §2

E. coli ATCC 35218 = test: microbe, parasite or virus in culture; settings: E. coli 35218; Week 1 (12/6/2023)
Procedure: as §1, §2

| SMILES | Bacterial MIC (K. pneumoniae 4640) [µg/mL] | Bacterial MIC (E. faecium ATCC 19434) [µg/mL] | Bacterial MIC (P. aeruginosa MRSN 5519) [µg/mL] | Bacterial MIC (E. faecium ATCC 49224) [µg/mL] | Bacterial MIC (K. pneumoniae ATCC 13883) [µg/mL] | Bacterial MIC (A. baumannii ATCC 17978) [µg/mL] | Bacterial MIC (P. aeruginosa ATCC 27853) [µg/mL] | Bacterial MIC (E. cloacae ATCC 13047) [µg/mL] | Bacterial MIC (S. aureus ATCC 25923) [µg/mL] | Bacterial MIC (E. coli ATCC 43888) [µg/mL] | Bacterial MIC (E. cloacae ATCC 35549) [µg/mL] | Bacterial MIC (A. baumannii ATCC 19606) [µg/mL] | Bacterial MIC (P. aeruginosa PA01 (Si)) [µg/mL] | Suggest solvent (solubility) [1] | Bacterial MIC (A. baumannii 5075) [µg/mL] | Bacterial MIC (S. aureus ATCC 43300) [µg/mL] | Bacterial MIC [2] [µg/mL] | Bacterial MIC (E. coli ATCC 35218) [µg/mL] |
| --- | --- | --- | --- | --- | --- | --- | --- | --- | --- | --- | --- | --- | --- | --- | --- | --- | --- | --- |
| CC[C@H](C)[C@H](NC(=O)[C@H](CCSC)NC(=O)[C@H](CS)NC(=O)[C@H](CC(C)C)NC(=O)[C@@H](NC(=O)[C@H](CS)NC(=O)[C@H](CS)NC(=O)[C@H](CCSC)NC(=O)[C@H](CS)NC(=O)[C@H](CO)NC(=O)[C@H](CC(C)C)NC(=O)[C@H](CCC(N)=O)NC(=O)[C@H](CCCCN)NC(=O)[C@H](Cc1c[nH]cn1)NC(=O)[C@H](CCC(N)=O)NC(=O)[C@H](Cc1c[nH]c2ccccc12)NC(=O)[C@@H](NC(=O)[C@@H](NC(=O)[C@H](CCC(=O)O)NC(=O)[C@@H](NC(=O)[C@H](CC(=O)O)NC(=O)[C@@H](NC(=O)[C@H](CC(C)C)NC(=O)[C@H](CC(=O)O)NC(=O)[C@@H](N)CCCCN)[C@@H](C)CC)[C@@H](C)O)[C@@H](C)O)[C@@H](C)O)C(C)C)C(=O)N[C@@H](C)C(=O)N[C@@H](CCCCN)C(=O)N[C@@H](CCCNC(=N)N)C(=O)N[C@@H](CS)C(=O)N[C@@H](CS)C(=O)O [Tr-Pc15] (H-KDLIDTETTWQHKQLSCMCCVLCMIAKRCC-OH; N-terminus and C-terminus assumed) | >128.000 | >128.000 | >128.000 | >128.000 | >128.000 | >128.000 | >128.000 | >128.000 | >128.000 | >128.000 | >128.000 | >128.000 | >128.000 | 1.0mg peptide soluble in 1.0ml DMSO | – | – | – | – |
| CC[C@H](C)[C@H](NC(=O)[C@H](CO)NC(=O)[C@H](CO)NC(=O)[C@H](Cc1ccccc1)NC(=O)[C@H](CS)NC(=O)CNC(=O)[C@@H]1CCCN1C(=O)[C@H](CCCNC(=N)N)NC(=O)[C@H](CCCNC(=N)N)NC(=O)CNC(=O)[C@H](CS)NC(=O)[C@H](CCCNC(=N)N)NC(=O)[C@H](CCCNC(=N)N)NC(=O)[C@@H]1CCCN1C(=O)[C@H](C)NC(=O)CNC(=O)[C@H](CCCNC(=N)N)NC(=O)[C@@H](NC(=O)[C@H](CC(C)C)NC(=O)[C@H](CCCNC(=N)N)NC(=O)[C@@H](NC(=O)CNC(=O)[C@H](CCCNC(=N)N)NC(=O)[C@H](CCCCN)NC(=O)[C@@H](NC(=O)[C@H](Cc1c[nH]cn1)NC(=O)[C@@H](NC(=O)[C@@H](N)CCC(=O)O)[C@@H](C)CC)[C@@H](C)O)[C@@H](C)O)C(C)C)C(=O)NCC(=O)N[C@@H](CCCCN)C(=O)N[C@H](C(=O)N[C@@H](CCC(=O)O)C(=O)O)C(C)C [TrPr-Eb2] (H-EIHTKRGTRLVRGAPRRCGRRPGCFSSIGKVE-OH; N-terminus and C-terminus assumed) | >128.000 | >128.000 | >128.000 | >128.000 | >128.000 | >128.000 | >128.000 | >128.000 | >128.000 | >128.000 | >128.000 | >128.000 | >128.000 | 1.0mg peptide soluble in 1.0ml H2O | >128.000 | >128.000 | >128.000 | >128.000 |
